This is an account of results in paper PMC8016831, “Structure–function engineering of novel fish gelatin-derived multifunctional peptides using high-resolution peptidomics and bioinformatics” (Scientific Reports, 2021).

One data set in a line: in vitro. Conditions: human, Caco-2 cells. The data set is classed as cell-based. As for the experimental part: The synthesized peptides were investigated for ACE and DPP-IV inhibitory activity, and antibacterial potential against E. coli, P. aeruginosa, S. aureus, and K. pneumoniae. Their cytotoxicity was also analyzed using the method described by Benjakul et al.[20], with some modifications. Briefly, Caco-2 and L929 cell lines were cultured in Dulbecco's Modified Eagle Medium and the RAW264.7 cell line in RPMI 1640 medium and incubated at 5% CO2 and 37 °C. All media were supplemented with 10% fetal bovine serum. Each cell line (100 µL at 2 × 10^4 cells mL^−1) was seeded onto 96-well microplates and mixed with an equal volume of each peptide at 1, 2, 4, and 6 mg mL^−1. Subsequently, the microplate was incubated for 72 h, followed by a cell viability assay using the MTT I proliferation kit (Roche Diagnostics, Basel, Switzerland). The absorbance was recorded at 570 nm.

Data set [1] concerns the target angiotensin-converting enzyme (ACE) (Homo sapiens, UniProt P12821). The experiment in a line: In vitro antihypertensive assay (ACE inhibition, FAPGG, spectrophotometric). The data set is classed as biochemical. The method, then: A spectrophotometrical method was used to determine the antihypertensive activity of peptides according to the procedure of Asoodeh, et al.[18], with some modifications. ACE (22 µL at 50 mU mL^−1) was mixed with 50 µL of the peptides at increasing concentrations (0.1, 0.2, 0.4, 0.8, 1, and 2 mg mL^−1). FAPGG (100 µL at 0.5 mM) and 150 µL of ACE buffer (50 mM Tris-HCl [pH 7.5] containing 0.3 M NaCl and 1 mM ZnCl2) were added to the mixture, followed by monitoring at 340 nm for 60 min. The antihypertensive activity was calculated as follows:2 Antihypertensiveactivity%=1-ΔAbssample/ΔAbscontrol×100
The ACE buffer was added to the mixture instead of the peptides for control. For determination of the experiment precision, captopril (15 nM) was used as positive control. The half maximal inhibitory concentration (IC50) was defined as the concentration of the peptides at which 50% of ACE activity was inhibited. All experiments were performed in triplicate.

For data set [2], the system named is K. pneumoniae (ATCC 43816). The data set is classed as cell-based, Klebsiella pneumoniae. To be noted: ATCC 43816, 24 h. As for the experimental part: (§1) The hydrolysates were investigated for their antibacterial activity against E. coli (ATCC 8739), P. aeruginosa (ATCC 9027), S. aureus (ATCC 6538), and K. pneumoniae (ATCC 43816) using the […]. Briefly, 50 μL of different concentrations of peptides were prepared in sterile Mueller Hinton broth. A volume of 30 μL of resazurin indicator solution (0.02%) was added to each well. An equal volume of bacterial suspension (0.5 McFarland standard) and sterile Mueller Hinton broth was then added to the well and incubated at 37 °C for 24 h. Sterile Mueller Hinton broth and 20 μg mL^−1 gentamycin were used as blank and positive controls, respectively. Afterward, the minimum inhibitory concentration (MIC) was determined as the lowest concentration of the peptides at which no visible growth was observed, compared to the positive control. All dilutions were performed in duplicate.

The subject of data set [3] is P. aeruginosa (ATCC 9027). The data set is classed as cell-based, Pseudomonas aeruginosa. Conditions: ATCC 9027, 24 h. The method, then: as §1
For a further data set, the system named is S. aureus (ATCC 6538). The data set is classed as cell-based, Staphylococcus aureus. Conditions: ATCC 6538, 24 h. The method, then: as §1
Another data set concerns E. coli (ATCC 8739). The data set is classed as cell-based, Escherichia coli. To be noted: ATCC 8739, 24 h. The method, then:
as §1

The target in data set [4] is dipeptidyl peptidase IV (DPP-IV) (Homo sapiens, UniProt P27487). The experiment in a line: In vitro antidiabetic assay (DPP-IV inhibition). The data set is classed as biochemical. The method, then:
To assess antidiabetic activity, a pre-incubated solution (50 μL) containing 30 μL Tris-HCl buffer, 5 μL of peptides (0.1, 0.2, 0.4, 0.8, 1, 2, and 4 mg mL^−1) or standard (5 μM), and 15 μL […] were poured into the wells of a 96-well microplate. Afterward, 50 μL DPP-IV (0.02 U mL^−1) was added to the mixture and incubated at 37 °C for 30 min. The reaction was stopped by adding 100 μL sodium acetate (1 M, pH 4). Absorbance at 405 nm was measured in a microplate reader. Diprotein-A (isoleucine-proline-isoleucine) was used as a standard DPP-IV inhibitor. The antidiabetic activity was calculated as follows:3 DPP - IVinhibitoryactivity(%)=1-Asample-Ablanck/Apositicecontrol-Anegativecontrol×100
Tris-HCl (100 mM) was added to the mixture instead of DPP-IV, peptide, or peptide plus DPP-IV to represent a blank, positive, and negative control, respectively.

Another data set has as its system DPP-IV. Set-up: method as in PMID 26323964. To be noted: cited from earlier work.
For a further data set, the system named is ACE. Conditions: cited from earlier work.

Ends that are not written are not given here.

Chain of dipeptidyl peptidase IV (DPP-IV) (P27487 whole entry, species assumed): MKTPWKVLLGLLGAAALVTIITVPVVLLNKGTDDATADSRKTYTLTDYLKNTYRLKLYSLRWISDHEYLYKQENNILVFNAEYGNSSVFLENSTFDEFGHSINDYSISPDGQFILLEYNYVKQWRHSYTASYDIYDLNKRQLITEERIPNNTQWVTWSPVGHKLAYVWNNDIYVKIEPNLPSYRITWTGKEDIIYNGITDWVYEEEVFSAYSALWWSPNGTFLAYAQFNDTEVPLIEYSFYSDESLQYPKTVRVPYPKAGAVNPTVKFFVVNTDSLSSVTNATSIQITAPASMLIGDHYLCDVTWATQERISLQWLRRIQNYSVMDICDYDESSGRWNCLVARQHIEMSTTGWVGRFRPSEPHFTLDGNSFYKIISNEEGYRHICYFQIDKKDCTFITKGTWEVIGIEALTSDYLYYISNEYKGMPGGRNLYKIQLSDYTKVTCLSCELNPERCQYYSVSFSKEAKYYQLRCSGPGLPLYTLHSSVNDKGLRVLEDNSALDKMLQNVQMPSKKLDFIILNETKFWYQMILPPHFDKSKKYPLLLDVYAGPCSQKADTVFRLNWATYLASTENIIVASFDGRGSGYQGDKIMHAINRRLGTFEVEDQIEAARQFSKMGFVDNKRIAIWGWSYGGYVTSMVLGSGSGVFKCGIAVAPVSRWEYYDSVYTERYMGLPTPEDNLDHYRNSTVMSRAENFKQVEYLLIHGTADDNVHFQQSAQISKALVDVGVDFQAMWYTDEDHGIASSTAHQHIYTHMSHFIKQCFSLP
Chain of angiotensin-converting enzyme (ACE) (P12821 30-1306, species assumed): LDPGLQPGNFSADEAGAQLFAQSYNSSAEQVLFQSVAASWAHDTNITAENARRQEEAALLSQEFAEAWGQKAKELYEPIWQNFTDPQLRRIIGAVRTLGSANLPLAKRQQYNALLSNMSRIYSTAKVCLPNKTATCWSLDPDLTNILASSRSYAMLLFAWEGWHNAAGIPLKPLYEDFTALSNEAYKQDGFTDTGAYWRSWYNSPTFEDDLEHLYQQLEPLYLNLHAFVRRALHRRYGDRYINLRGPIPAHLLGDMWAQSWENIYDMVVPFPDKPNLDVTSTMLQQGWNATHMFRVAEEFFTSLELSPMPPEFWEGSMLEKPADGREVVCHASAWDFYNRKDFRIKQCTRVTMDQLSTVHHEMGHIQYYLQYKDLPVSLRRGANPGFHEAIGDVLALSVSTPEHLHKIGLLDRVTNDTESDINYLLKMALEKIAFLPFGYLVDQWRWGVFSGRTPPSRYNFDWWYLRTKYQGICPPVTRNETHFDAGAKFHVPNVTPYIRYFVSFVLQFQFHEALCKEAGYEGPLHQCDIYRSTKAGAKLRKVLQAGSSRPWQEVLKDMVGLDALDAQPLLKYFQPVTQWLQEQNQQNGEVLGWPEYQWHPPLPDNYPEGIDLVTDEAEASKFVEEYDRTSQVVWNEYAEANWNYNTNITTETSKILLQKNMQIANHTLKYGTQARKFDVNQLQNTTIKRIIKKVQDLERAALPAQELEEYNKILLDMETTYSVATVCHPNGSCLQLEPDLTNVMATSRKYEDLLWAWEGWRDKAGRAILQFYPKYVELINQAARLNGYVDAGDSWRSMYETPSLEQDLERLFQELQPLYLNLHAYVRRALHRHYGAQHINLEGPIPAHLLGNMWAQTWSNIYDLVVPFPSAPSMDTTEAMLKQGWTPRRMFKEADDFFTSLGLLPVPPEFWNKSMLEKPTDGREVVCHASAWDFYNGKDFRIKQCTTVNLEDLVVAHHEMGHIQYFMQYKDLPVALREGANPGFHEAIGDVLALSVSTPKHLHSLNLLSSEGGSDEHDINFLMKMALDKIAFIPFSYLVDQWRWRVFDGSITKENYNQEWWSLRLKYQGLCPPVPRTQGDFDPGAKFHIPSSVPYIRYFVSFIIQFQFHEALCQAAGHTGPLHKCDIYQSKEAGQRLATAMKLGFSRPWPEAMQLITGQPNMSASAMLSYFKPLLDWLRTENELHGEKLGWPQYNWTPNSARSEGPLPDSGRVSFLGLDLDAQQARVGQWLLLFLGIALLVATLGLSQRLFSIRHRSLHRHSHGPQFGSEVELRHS

With GRDGEP-NH2 [P2, GRDGEP], the viability (usually a per cent measure of how many cells are alive, often set against a control) at 72 h, 6 mg mL^−1 in “in vitro” stood at 95.8%. For the same substance, the IC50 (as a rule, the concentration needed to halve the response being measured) in data set [1] is 811 µM; in data set [4], 1480 µM. Moreover, the “MIC against K. pneumoniae” value in data set [2] was not below 2000 µg/mL. Also, the “MIC against P. aeruginosa” value in data set [3] is not below 2000 µg/mL. Further, the “MIC against S. aureus” value against S. aureus (ATCC 6538) stood at 1160 µg/mL. Moreover, the “MIC for E. coli” value against E. coli (ATCC 8739) stood at 1330 µg/mL.
As to MHQPPQPL, in the data set with DPP-IV, the DPP-IV inhibitory activities entry is “moderate”.
MTGTQGEAGR-NH2 [P3, MTGTQGEAGR] gave a viability at 72 h, 6 mg mL^−1 in the data set “in vitro” of 95.9%. The IC50 stood at 775 µM in data set [1] and 1150 µM in [4]. In addition, in data set [2], the “MIC against K. pneumoniae” value was 1500 µg/mL. In addition, the “MIC against P. aeruginosa” value in [3] was found to be 1660 µg/mL. Besides, in the data set with S. aureus (ATCC 6538), the “MIC against S. aureus” value stood at 200 µg/mL. For the same substance, the “MIC for E. coli” value with E. coli (ATCC 8739) was found to be 460 µg/mL.
Take SPTVMFPPQSVL: the DPP-IV inhibitory activities entry in the data set on DPP-IV is reported as “moderate”.
For VLAQYK, in the data set on ACE, the ACE inhibition was 30.1%.
